{
  "source": "paper PMC8459971",
  "about": "“Evaluation of the hepatotoxicity of the novel GPR40 (FFAR1) agonist CPL207280 in the rat and monkey” (PLoS ONE, 2021)",
  "key": {"[1]": {"test": "Stability in microsomes, human", "type": "in vitro ADME", "conditions": "for average DEG [%]: human microsomes, with cofactors", "protocol": "(§1) The final incubation volume was 500 μL. Two control compounds (verapamil and donepezil) were included for each microsomal species, along with the appropriate vehicle control. The reactions were terminated by transferring 50 μL of incubate to 100 μL methanol containing an internal standard (metoprolol) at appropriate time points (0, 10, 20, 40, 60, and 120 min for the test compound and 0, 5, 10, 20, 40, and 60 min for the control compounds). The termination plates were centrifuged at 4000 x g at 4°C for 30 min to precipitate the protein. The supernatants were then collected for analysis, and LC-MS/MS was used for detection purposes. The system consisted of an Acquity™ Binary Solvent Manager, Acquity™ 4-position heated column manager, 2777 Ultra High Pressure Autosampler, and a Xevo-TQ MS triple quadrupole mass spectrometer (Waters Ltd., Herts, UK). This process was carried out twice."}, "[2]": {"conditions": "phase III studies, within six months; cited from earlier work"}, "[3]": {"test": "Stability in microsomes, dog", "type": "in vitro ADME", "conditions": "for average DEG [%]: dog microsomes, with cofactors", "protocol": "as §1"}, "NTCP [4]": {"target": "T1, NTCP (Homo sapiens, UniProt Q14973)", "T1 construct": "expressed in transfected cells; host or cells: HEK cells", "T1 sequence (Q14973 1-349)": "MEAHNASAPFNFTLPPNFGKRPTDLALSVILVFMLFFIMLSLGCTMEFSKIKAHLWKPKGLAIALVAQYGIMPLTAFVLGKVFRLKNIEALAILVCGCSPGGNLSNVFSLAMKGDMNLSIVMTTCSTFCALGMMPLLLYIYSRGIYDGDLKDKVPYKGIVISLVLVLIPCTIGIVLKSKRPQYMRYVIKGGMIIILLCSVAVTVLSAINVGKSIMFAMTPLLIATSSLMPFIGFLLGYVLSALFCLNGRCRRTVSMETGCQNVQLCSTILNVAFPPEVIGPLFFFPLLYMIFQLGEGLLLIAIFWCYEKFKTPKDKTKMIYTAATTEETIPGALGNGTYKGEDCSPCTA", "conditions": "read-out: Inhibition of NTCP, previously reported IC50; cited from earlier work"}, "OAT2v1": {"target": "T2, OAT2v1 (Homo sapiens, UniProt Q9Y694)", "T2 construct": "expressed in transfected cells; host or cells: HEK cells", "T2 sequence (Q9Y694 1-546 isoform Q9Y694-2)": "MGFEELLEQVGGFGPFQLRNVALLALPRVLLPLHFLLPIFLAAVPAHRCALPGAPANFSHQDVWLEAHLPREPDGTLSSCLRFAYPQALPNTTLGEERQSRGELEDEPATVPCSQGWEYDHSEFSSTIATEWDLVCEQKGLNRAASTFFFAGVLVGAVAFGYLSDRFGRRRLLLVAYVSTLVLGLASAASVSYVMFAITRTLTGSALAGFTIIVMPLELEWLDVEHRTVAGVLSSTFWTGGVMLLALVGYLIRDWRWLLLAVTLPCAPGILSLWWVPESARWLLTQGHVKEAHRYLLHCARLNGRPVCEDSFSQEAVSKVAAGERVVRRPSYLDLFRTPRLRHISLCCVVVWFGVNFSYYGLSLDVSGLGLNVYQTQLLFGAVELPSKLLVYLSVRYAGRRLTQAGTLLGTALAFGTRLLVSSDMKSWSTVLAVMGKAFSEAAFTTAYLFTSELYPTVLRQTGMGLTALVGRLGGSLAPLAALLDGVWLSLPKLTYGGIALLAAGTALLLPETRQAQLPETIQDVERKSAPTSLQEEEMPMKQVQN", "test": "Uptake transporter inhibition assay, OAT2v1", "type": "cell-based", "conditions": "for Accumulation (counts per minute; CPM) HEK293FT-MOCK / Accumulation (counts per minute; CPM) HEK293FT-OAT2v1: OAT2v1", "protocol": "(§2) For the uptake transporter inhibition assay, cells were washed twice with 100 μL of the appropriate buffer (HK, pH 7.4) for OATP1B1, followed by HBSS (pH 7.4) for (NTCP, OAT1, OAT2v1, OATP1A2, and OATP1B3). Uptake experiments were carried out at 37 ± 1°C in 50 μL of the respective buffer containing the probe substrate and the compound or solvent."}, "NTCP [5]": {"target": "T1, NTCP", "test": "Uptake transporter inhibition assay, NTCP", "type": "cell-based", "conditions": "for Accumulation (counts per minute; CPM) HEK293-NTCP / Accumulation (counts per minute; CPM) HEK293FT-MOCK: NTCP", "protocol": "as §2"}, "[6]": {"conditions": "Dog (Beagle) microsomes, mean n = 2"}, "[7]": {"conditions": "transformed HEK cells, up to 300μM, n = 2"}},
  "note": "Values joined by “and” are separate entries in the source; they are usually repeats but may differ in a detail not shown here. Equal entries are not always repeated. Where two headings read alike, the source gives them in different places.",
  "data": [
    {"smiles": "Cc1cc(OCCCS(C)(=O)=O)cc(C)c1-c1cccc(COc2ccc3c(c2)OC[C@H]3CC(=O)O)c1", "note": "[TAK-875, fasiglifam, reference compound]", "values": [
      {"measurement": "half-life at 3 μM", "setting": "[1]; Human microsomes, mean n = 2", "value": 3.5, "unit": "h"},
      {"measurement": "microsomal CLint at 3 μM", "setting": "[1]; Human microsomes, mean n = 2", "value": 6.6, "unit": "µL/min/mg"},
      {"measurement": "stability classification in microsomes", "setting": "[1]; based on the Clint values from different species, reference ranges by Cyprotex (human range given in legend)", "value": "stable compound"},
      {"measurement": "average DEG [%]", "setting": "[1]; 0 min", "value": 100.0, "unit": "%"},
      {"measurement": "average DEG [%]", "setting": "[1]; 20 min", "value": 110.6, "unit": "%"},
      {"measurement": "average DEG [%]", "setting": "[1]; 40 min", "value": 92.5, "unit": "%"},
      {"measurement": "average DEG [%]", "setting": "[1]; 60 min", "value": 85.1, "unit": "%"},
      {"measurement": "study participants with serum ALT elevations > 3 × ULN", "setting": "[2]", "value": 2.7, "unit": "%"},
      {"measurement": "half-life at 3 μM", "setting": "[3]; [6]", "value": 1.87, "unit": "h"},
      {"measurement": "microsomal CLint at 3 μM", "setting": "[3]; [6]", "value": 12.4, "unit": "µL/min/mg"},
      {"measurement": "average DEG [%]", "setting": "[3]; 0 min", "value": 100.0, "unit": "%"},
      {"measurement": "average DEG [%]", "setting": "[3]; 20 min", "value": 82.2, "unit": "%"},
      {"measurement": "average DEG [%]", "setting": "[3]; 40 min", "value": 77.1, "unit": "%"},
      {"measurement": "average DEG [%]", "setting": "[3]; 60 min", "value": 67.7, "unit": "%"},
      {"measurement": "IC50", "setting": "NTCP [4]", "value": 4.6, "unit": "µM"},
      {"measurement": "Accumulation (counts per minute; CPM) HEK293FT-MOCK", "setting": "OAT2v1; conc 0.10 µM", "value": "37 CPM and 25 CPM"},
      {"measurement": "Accumulation (counts per minute; CPM) HEK293FT-OAT2v1", "setting": "OAT2v1; conc 0.10 µM", "value": "4606 CPM and 4412 CPM"},
      {"measurement": "Accumulation (counts per minute; CPM) HEK293FT-MOCK", "setting": "OAT2v1; conc 0.30 µM", "value": 30, "unit": "CPM"},
      {"measurement": "Accumulation (counts per minute; CPM) HEK293FT-OAT2v1", "setting": "OAT2v1; conc 0.30 µM", "value": "4740 CPM and 4495 CPM"},
      {"measurement": "Accumulation (counts per minute; CPM) HEK293FT-MOCK", "setting": "OAT2v1; conc 1.00 µM", "value": 33, "unit": "CPM"},
      {"measurement": "Accumulation (counts per minute; CPM) HEK293FT-OAT2v1", "setting": "OAT2v1; conc 1.00 µM", "value": "4344 CPM and 4183 CPM"},
      {"measurement": "Accumulation (counts per minute; CPM) HEK293FT-MOCK", "setting": "OAT2v1; conc 3.00 µM", "value": "34 CPM and 20 CPM"},
      {"measurement": "Accumulation (counts per minute; CPM) HEK293FT-OAT2v1", "setting": "OAT2v1; conc 3.00 µM", "value": "4050 CPM and 3892 CPM"},
      {"measurement": "Accumulation (counts per minute; CPM) HEK293FT-MOCK", "setting": "OAT2v1; conc 10.00 µM", "value": "25 CPM and 18 CPM"},
      {"measurement": "Accumulation (counts per minute; CPM) HEK293FT-OAT2v1", "setting": "OAT2v1; conc 10.00 µM", "value": "3715 CPM and 3589 CPM"},
      {"measurement": "Accumulation (counts per minute; CPM) HEK293FT-MOCK", "setting": "OAT2v1; conc 30.00 µM", "value": "47 CPM and 27 CPM"},
      {"measurement": "Accumulation (counts per minute; CPM) HEK293FT-OAT2v1", "setting": "OAT2v1; conc 30.00 µM", "value": "3019 CPM and 2844 CPM"},
      {"measurement": "Accumulation (counts per minute; CPM) HEK293FT-MOCK", "setting": "OAT2v1; conc 100.00 µM", "value": "24 CPM and 30 CPM"},
      {"measurement": "Accumulation (counts per minute; CPM) HEK293FT-OAT2v1", "setting": "OAT2v1; conc 100.00 µM", "value": "1943 CPM and 1847 CPM"},
      {"measurement": "IC50", "setting": "OAT2v1; [7]", "value": 62.8, "unit": "µM"},
      {"measurement": "Accumulation (counts per minute; CPM) HEK293-NTCP", "setting": "NTCP [5]; conc 0.10 µM", "value": "4946 CPM and 5522 CPM"},
      {"measurement": "Accumulation (counts per minute; CPM) HEK293FT-MOCK", "setting": "NTCP [5]; conc 0.10 µM", "value": "31 CPM and 28 CPM"},
      {"measurement": "Accumulation (counts per minute; CPM) HEK293-NTCP", "setting": "NTCP [5]; conc 0.30 µM", "value": "4754 CPM and 4976 CPM"},
      {"measurement": "Accumulation (counts per minute; CPM) HEK293FT-MOCK", "setting": "NTCP [5]; conc 0.30 µM", "value": "28 CPM and 36 CPM"},
      {"measurement": "Accumulation (counts per minute; CPM) HEK293-NTCP", "setting": "NTCP [5]; conc 1.00 µM", "value": "4452 CPM and 4849 CPM"},
      {"measurement": "Accumulation (counts per minute; CPM) HEK293FT-MOCK", "setting": "NTCP [5]; conc 1.00 µM", "value": "23 CPM and 31 CPM"},
      {"measurement": "Accumulation (counts per minute; CPM) HEK293-NTCP", "setting": "NTCP [5]; conc 3.00 µM", "value": "4304 CPM and 4641 CPM"},
      {"measurement": "Accumulation (counts per minute; CPM) HEK293FT-MOCK", "setting": "NTCP [5]; conc 3.00 µM", "value": "25 CPM and 22 CPM"},
      {"measurement": "Accumulation (counts per minute; CPM) HEK293-NTCP", "setting": "NTCP [5]; conc 10.00 µM", "value": "3509 CPM and 4053 CPM"},
      {"measurement": "Accumulation (counts per minute; CPM) HEK293FT-MOCK", "setting": "NTCP [5]; conc 10.00 µM", "value": "28 CPM and 26 CPM"},
      {"measurement": "Accumulation (counts per minute; CPM) HEK293-NTCP", "setting": "NTCP [5]; conc 30.00 µM", "value": "2661 CPM and 2656 CPM"},
      {"measurement": "Accumulation (counts per minute; CPM) HEK293FT-MOCK", "setting": "NTCP [5]; conc 30.00 µM", "value": "25 CPM and 30 CPM"},
      {"measurement": "Accumulation (counts per minute; CPM) HEK293-NTCP", "setting": "NTCP [5]; conc 100.00 µM", "value": "1608 CPM and 1569 CPM"},
      {"measurement": "Accumulation (counts per minute; CPM) HEK293FT-MOCK", "setting": "NTCP [5]; conc 100.00 µM", "value": "25 CPM and 33 CPM"},
      {"measurement": "IC50", "setting": "NTCP [5]; [7]", "value": 53.1, "unit": "µM"}
    ]}
  ]
}
